For 20 compounds, IC50 results are on record in patent publication US20250066383A1, “PDE 7 MODULATOR COMPOUNDS” (Omeros Corporation, priority 2023, published 2025).

By IC50 is commonly meant the concentration that inhibits the measured activity by half.

The target of one assay is PDE7A (Homo sapiens (Human), UniProt Q13946). In words: PDE7A assay: inhibition of PDE7A hydrolysis of [3H]cAMP to [3H]AMP (scintillation proximity, yttrium silicate beads). It is filed as biochemical. As to conditions: 16 nM [3H]cAMP, 30° C., 20 minutes; read-out: PDE 7A IC50. How it is done:
(§1) PDE7A and PDE7B Assay. Compounds were tested for their activity by measuring the inhibition of PDE7A or PDE7B hydrolysis of [3H]cAMP to [3H]AMP. Generally, eight dilutions of compound were assayed in 50 mM Tris-HCl pH 7.5, 8.3 mM MgCl2, 0.5 mg/mL BSA, 1.7 mM EGTA, 16 nM [3H]cAMP, and 1% DMSO. PDE7A or PDE7B (typically 1-5 ng/mL) (BPS BioSciences, CA) is added to initiate the reaction. The reaction was incubated at 30° C. for 20 minutes. PDE7A and PDE7B hydrolysis was terminated by the addition of yttrium silicate beads (GE Healthcare, RPNQ0150) and counted on a Wallac Microbeta scintillation counter, 1-2 hours following the addition of the beads. Data was analyzed using XLfit […] from which ICso values were obtained.

The next assay concerns the target PDE7B (Homo sapiens (Human), UniProt Q9NP56). Kind of assay: PDE7B assay: inhibition of PDE7B hydrolysis of [3H]cAMP to [3H]AMP (scintillation proximity, yttrium silicate beads). The assay is classed as biochemical. As to conditions: 16 nM [3H]cAMP, 30° C., 20 minutes; read-out: PDE 7B IC50. As to the method: as §1

Chain of PDE7A (Q13946 whole entry): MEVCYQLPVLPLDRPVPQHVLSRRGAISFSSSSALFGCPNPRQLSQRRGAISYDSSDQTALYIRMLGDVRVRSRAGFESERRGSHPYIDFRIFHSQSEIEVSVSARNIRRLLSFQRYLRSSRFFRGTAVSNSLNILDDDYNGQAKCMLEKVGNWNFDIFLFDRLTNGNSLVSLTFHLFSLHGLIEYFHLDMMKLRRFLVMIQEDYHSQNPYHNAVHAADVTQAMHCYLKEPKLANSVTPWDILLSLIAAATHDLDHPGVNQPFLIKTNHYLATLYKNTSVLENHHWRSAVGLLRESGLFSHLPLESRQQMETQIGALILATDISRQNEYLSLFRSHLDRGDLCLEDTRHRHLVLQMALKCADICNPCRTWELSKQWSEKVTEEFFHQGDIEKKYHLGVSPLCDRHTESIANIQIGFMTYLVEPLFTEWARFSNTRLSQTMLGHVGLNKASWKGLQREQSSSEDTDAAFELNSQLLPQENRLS
Chain of PDE7B (Q9NP56 whole entry): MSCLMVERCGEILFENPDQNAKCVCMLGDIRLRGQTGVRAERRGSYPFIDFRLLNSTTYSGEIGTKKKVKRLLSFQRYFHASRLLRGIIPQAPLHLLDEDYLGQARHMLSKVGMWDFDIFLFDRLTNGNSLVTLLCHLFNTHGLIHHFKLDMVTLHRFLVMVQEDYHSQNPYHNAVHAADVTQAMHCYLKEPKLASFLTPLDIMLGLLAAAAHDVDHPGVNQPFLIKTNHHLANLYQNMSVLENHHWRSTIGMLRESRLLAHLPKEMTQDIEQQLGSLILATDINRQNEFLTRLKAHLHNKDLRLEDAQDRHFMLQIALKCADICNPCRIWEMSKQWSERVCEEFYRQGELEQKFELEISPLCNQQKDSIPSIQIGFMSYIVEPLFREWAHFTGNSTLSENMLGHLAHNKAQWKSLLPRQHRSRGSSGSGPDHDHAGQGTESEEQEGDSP

Turning to `Cc1nn(C2CCC(F)(F)CC2)c2sc(C(=O)N[C@H]3C[C@H](N4CCOCC4)C3)cc12` [II-18, 1-(4,4-difluorocyclo-hexyl)-3-methyl-N-((1r,3r)-3-morpho-linocyclobutyl)-1H-thieno[2,3-c]pyrazole-5-carboxamide], the IC50 on PDE7A and at PDE7B was 10 to 30 nM in each case.
Take `Cc1nn(CC(C)C)c2sc(C(=O)N[C@H]3CC[C@H](N4CCN(C(=O)N(C)C)CC4)CC3)cc12` [II-19, N-((1r,4r)-4-(4-(dimethylcarbamo-yl)piperazin-1-yl)-cyclohexyl)-1-iso-butyl-3-methyl-1H-thieno[2,3-c]pyrazole-5-carboxamide]: the IC50 at PDE7A fell in the range of 10 to 30 nM; on PDE7B it was 30 to 100 nM.
As for `Cc1nn(CC2CCC2)c2sc(C(=O)N[C@H]3CC[C@H](N4CCN(C5CC5)CC4)CC3)cc12` [II-20, 1-(cyclobutylmethyl)-N-((1r,4r)-4-(4-cyclopropylpiperazin-1-yl)cyclohexyl)-3-methyl-1H-thieno [2,3-c]pyrazole-5-carboxamide], the IC50 lay in the range of 30 to 100 nM at PDE7A and 100 to 500 nM at PDE7B.
The corresponding values for `Cc1nn(CC2CCC2)c2sc(C(=O)N[C@H]3CC[C@H](N4CCN(CC(F)(F)F)CC4)CC3)cc12` [II-21, 1-(cyclobutylmethyl)-3-methyl-N-((1r,4r)-4-(4-(2,2,2-trifluoro-ethyl)piperazin-1-yl)-cyclohexyl)-1H-thieno[2,3-c]pyrazole-5-carboxamide] are 10 to 30 nM and 30 to 100 nM.
As for `Cc1nn(CC2CCC2)c2sc(C(=O)N[C@H]3CC[C@H](N4CC(F)(F)C4)CC3)cc12` [II-22, 1-(cyclobutylmethyl)-N-((1r,4r)-4-(3,3-difluoroazetidin-1-yl)cyclohexyl)-3-methyl-1H-thieno [2,3-c]pyrazole-5-carboxamide], the IC50 on PDE7A and at PDE7B was 30 to 100 nM each time.
Turning to `CC(=S)N1CCN([C@H]2CC[C@H](NC(=O)c3cc4c(C)nn(CC(C)C)c4s3)CC2)CC1` [II-23, N-((1r,4r)-4-(4-ethanethioylpiperazin-1-yl)cyclohexyl)-1-isobutyl-3-methyl-1H-thieno[2,3-c]pyrazole-5-carboxamide], the concentration for half-maximal inhibition (IC50) on PDE7A is 10 to 30 nM; on PDE7B, 30 to 100 nM.
As to `Cc1nn(CC(C)(C)C)c2sc(C(=O)N[C@H]3CC[C@H](N4CCN(C5CC5)CC4)CC3)cc12` [II-24, N-((1r,4r)-4-(4-cyclo-propylpiperazin-1-yl)-cyclohexyl)-3-meth-yl-1-neopentyl-1H-thieno[2,3-c]pyrazole-5-carboxamide], the 50% inhibitory concentration (IC50) at PDE7A and on PDE7B was under 10 nM throughout.
For `Cc1nn(CC(C)(C)C)c2sc(C(=O)N[C@H]3C[C@H](N4CCOCC4)C3)cc12` [II-25, 3-methyl-N-((1r,3r)-3-morpholinocyclo-butyl)-1-neopentyl-1H-thieno[2,3-c]pyr-azole-5-carboxamide], the IC50 on PDE7A was in the range of 10 to 30 nM; on PDE7B it was 30 to 100 nM.
`Cc1nn(C2CCC(F)(F)CC2)c2sc(C(=O)N[C@H]3CC[C@H](N4CCC(F)(F)C4)CC3)cc12` [II-26, 1-(4,4-difluorocyclo-hexyl)-N-((1r,4r)-4-(3,3-difluoropyrrol-idin-1-yl)cyclohexyl)-3-methyl-1H-thieno [2,3-c]pyrazole-5-carboxamide]: the IC50 on PDE7A and on PDE7B was under 10 nM each time.
Consider `Cc1nn(CC(C)(C)C)c2sc(C(=O)N[C@H]3CC[C@H](N4CCC(F)(F)C4)CC3)cc12` [II-27, N-((1r,4r)-4-(3,3-difluoropyrrolidin-1-yl)cyclohexyl)-3-methyl-1-neopentyl-1H-thieno[2,3-c]pyr-azole-5-carboxamide], for which the half-maximal inhibitory concentration (IC50) at PDE7A and on PDE7B was under 10 nM in each case.
As for `Cc1nn(CC(C)(C)C)c2sc(C(=O)N[C@H]3CC[C@H](N4CCN(CC(F)F)CC4)CC3)cc12` [II-28, N-((1r,4r)-4-(4-(2,2-difluoroethyl)piper-azin-1-yl)cyclohex-yl)-3-methyl-1-neo-pentyl-1H-thieno [2,3-c]pyrazole-5-carboxamide], the IC50 on PDE7A and at PDE7B was 10 to 30 nM throughout.
For the compound `CC(=O)N1CCN([C@H]2C[C@H](NC(=O)c3cc4c(C)nn(C5CCC(F)(F)CC5)c4s3)C2)CC1` [II-29, N-((1r,3r)-3-(4-acet-ylpiperazin-1-yl)-cyclobutyl)-1-(4,4-difluorocyclohexyl)-3-methyl-1H-thieno [2,3-c]pyrazole-5-carboxamide], the 50% inhibitory concentration (IC50) at PDE7A and at PDE7B was 10 to 30 nM in each case.
Turning to `Cc1nn(CC(C)(C)C)c2sc(C(=O)N[C@H]3CC[C@H](N4CC(F)(F)C4)CC3)cc12` [II-30, N-((1r,4r)-4-(3,3-difluoroazetidin-1-yl)cyclohexyl)-3-methyl-1-neopentyl-1H-thieno[2,3-c]pyr-azole-5-carboxamide], the IC50 at PDE7A and at PDE7B was under 10 nM each time.
With `Cc1nn(CC(C)(C)C)c2sc(C(=O)N[C@H]3CC[C@H](N4CCN(C(C)C)CC4)CC3)cc12` [II-31, N-((1r,4r)-4-(4-iso-propylpiperazin-1-yl)cyclohexyl)-3-methyl-1-neopentyl-1H-thieno[2,3-c]pyr-azole-5-carboxamide], the IC50 on PDE7A and on PDE7B was under 10 nM throughout.
On to `Cc1nn(CC(C)(C)C)c2sc(C(=O)N[C@H]3CC[C@H](N4CCOCC4)CC3)cc12` [II-32, 3-methyl-N-((1r,4r)-4-morpholinocyclo-hexyl)-1-neopentyl-1H-thieno[2,3-c]pyr-azole-5-carboxamide], for which the IC50 at PDE7A and at PDE7B was under 10 nM each time.
Consider `Cc1nn(C2CCC(F)(F)CC2)c2sc(C(=O)N[C@H]3C[C@H](N4CCN(C5CC5)CC4)C3)cc12` [II-33, N-((1r,3r)-3-(4-cyclo-propylpiperazin-1-yl)cyclobutyl)-1-(4,4-difluorocyclohexyl)-3-methyl-1H-thieno [2,3-c]pyrazole-5-carboxamide], for which the IC50 on PDE7A and on PDE7B was 10 to 30 nM in each case.
In the case of `Cc1nn(CC(C)(C)C)c2sc(C(=O)N[C@H]3C[C@H](N4CCN(C5CC5)CC4)C3)cc12` [II-34, N-((1r,3r)-3-(4-cyclo-propylpiperazin-1-yl)cyclobutyl)-3-methyl-1-neopentyl-1H-thieno[2,3-c] pyrazole-5-carbox-amide], the figures for the IC50 at PDE7A and at PDE7B were 10 to 30 nM and 30 to 100 nM, respectively.
On to `Cc1nn(CC(C)(C)C)c2sc(C(=O)Nc3ccc(N4CCOCC4)nc3)cc12` [II-35, 3-methyl-N-(6-morpholinopyridin-3-yl)-1-neopentyl-1H-thieno[2,3-c]pyr-azole-5-carboxamide], for which the IC50 on PDE7A and on PDE7B was 10 to 30 nM throughout.
In the case of `Cc1nn(CC(C)(C)C)c2sc(C(=O)N[C@H]3CC[C@H](N4CC(C#N)C4)CC3)cc12` [II-36, N-((1r,4r)-4-(3-cyanoazetidin-1-yl)-cyclohexyl)-3-meth-yl-1-neopentyl-1H-thieno[2,3-c]pyr-azole-5-carboxamide], the IC50 on PDE7A and on PDE7B was under 10 nM each time.
`CC(=O)N1CCN([C@H]2CC[C@H](NC(=O)c3cc4c(C)nn(CC(C)(C)C)c4s3)CC2)CC1` [II-37, N-((1r,4r)-4-(4-acet-ylpiperazin-1-yl)-cyclohexyl)-3-meth-yl-1-neopentyl-1H-thieno[2,3-c]pyr-azole-5-carboxamide]: the IC50 at PDE7A and on PDE7B was under 10 nM in each case.
